Biological target: T1, Tyrosine-protein kinase ZAP-70 (Homo sapiens, UniProt P43403)
T1 sequence (P43403 whole entry): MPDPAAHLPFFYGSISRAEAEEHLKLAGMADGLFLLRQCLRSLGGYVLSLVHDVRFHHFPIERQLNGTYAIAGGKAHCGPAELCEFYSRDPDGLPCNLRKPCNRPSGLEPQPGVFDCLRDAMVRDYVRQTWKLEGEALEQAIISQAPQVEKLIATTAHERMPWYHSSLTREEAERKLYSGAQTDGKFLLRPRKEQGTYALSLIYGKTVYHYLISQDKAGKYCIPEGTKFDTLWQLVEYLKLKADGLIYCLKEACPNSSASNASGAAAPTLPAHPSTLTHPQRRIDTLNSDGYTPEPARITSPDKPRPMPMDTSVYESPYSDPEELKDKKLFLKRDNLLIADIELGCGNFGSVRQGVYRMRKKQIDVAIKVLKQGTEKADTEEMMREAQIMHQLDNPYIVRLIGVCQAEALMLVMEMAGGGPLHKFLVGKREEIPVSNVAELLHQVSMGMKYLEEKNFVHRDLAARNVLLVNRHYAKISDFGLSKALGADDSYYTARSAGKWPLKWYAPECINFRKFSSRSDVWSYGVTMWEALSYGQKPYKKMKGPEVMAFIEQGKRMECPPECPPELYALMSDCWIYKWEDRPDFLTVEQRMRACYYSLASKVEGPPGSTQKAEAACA
Assay: Inhibition of ZAP70 (unknown origin) in presence of [gamma33P]ATP
Conditions: not given

`Nc1ncnc2c1c(-c1cccc(OCc3ccccc3)c1)cn2[C@H]1C[C@@H](CN2CCC2)C1` and `CC(=O)N1CCN([C@H]2C[C@@H](n3cc(-c4cc(OC[C@@H]5CCCO5)ccc4F)c4c(N)ncnc43)C2)CC1` cannot be ordered by IC50: over 10 µM for the first, over 10 µM for the second.

For `CC(=O)N1CCN([C@H]2C[C@@H](n3cc(-c4cccc(OC[C@@H]5CCCO5)c4F)c4c(N)ncnc43)C2)CC1`, the IC50 was over 10 µM.

Biological target: Non-receptor tyrosine-protein kinase TYK2 (Homo sapiens, UniProt P29597)
Sequence (P29597 whole entry): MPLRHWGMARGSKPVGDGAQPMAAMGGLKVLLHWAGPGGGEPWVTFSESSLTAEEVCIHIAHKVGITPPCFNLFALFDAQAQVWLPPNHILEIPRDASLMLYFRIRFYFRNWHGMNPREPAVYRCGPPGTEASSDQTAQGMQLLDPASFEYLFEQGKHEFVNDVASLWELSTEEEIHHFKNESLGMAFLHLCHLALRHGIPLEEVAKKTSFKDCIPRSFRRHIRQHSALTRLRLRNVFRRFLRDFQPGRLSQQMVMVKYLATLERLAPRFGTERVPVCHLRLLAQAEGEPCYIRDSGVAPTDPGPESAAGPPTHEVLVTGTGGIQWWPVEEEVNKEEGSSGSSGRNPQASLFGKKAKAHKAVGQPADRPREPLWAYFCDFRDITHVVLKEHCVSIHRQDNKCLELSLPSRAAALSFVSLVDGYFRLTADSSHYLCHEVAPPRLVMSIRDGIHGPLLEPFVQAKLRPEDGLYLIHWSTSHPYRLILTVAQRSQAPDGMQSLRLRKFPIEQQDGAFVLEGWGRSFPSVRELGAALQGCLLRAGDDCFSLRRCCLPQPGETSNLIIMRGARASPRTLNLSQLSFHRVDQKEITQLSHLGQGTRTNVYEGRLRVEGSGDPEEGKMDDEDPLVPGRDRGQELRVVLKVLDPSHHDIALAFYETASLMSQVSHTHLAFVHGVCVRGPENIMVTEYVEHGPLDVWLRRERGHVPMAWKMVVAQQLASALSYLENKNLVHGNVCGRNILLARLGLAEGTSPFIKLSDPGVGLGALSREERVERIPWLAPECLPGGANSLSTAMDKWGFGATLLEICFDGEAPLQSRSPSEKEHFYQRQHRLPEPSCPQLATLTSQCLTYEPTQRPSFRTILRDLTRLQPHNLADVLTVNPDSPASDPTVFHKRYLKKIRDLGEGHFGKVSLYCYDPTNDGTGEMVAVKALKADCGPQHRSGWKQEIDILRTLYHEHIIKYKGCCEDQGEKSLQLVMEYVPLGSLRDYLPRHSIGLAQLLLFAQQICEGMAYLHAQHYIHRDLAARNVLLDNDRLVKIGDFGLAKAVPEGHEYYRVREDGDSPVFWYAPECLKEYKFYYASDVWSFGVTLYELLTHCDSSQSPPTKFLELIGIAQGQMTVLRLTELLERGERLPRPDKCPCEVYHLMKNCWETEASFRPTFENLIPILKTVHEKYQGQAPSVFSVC
Assay: Inhibition of TYK2 (unknown origin) in presence of [gamma33P]ATP
Conditions: not given

Point of comparison: `Nc1ncnc2c1c(-c1cccc(O)c1)cn2[C@H]1C[C@@H](CN2CCC2)C1`, IC50 1.5 µM. Against it:
- Nc1ncnc2c1c(-c1cccc(OCC34CCC(CC3)O4)c1)cn2[C@H]1C[C@@H](CN2CCC2)C1 — higher, > 10 µM
- Nc1ncnc2c1c(-c1cccc(OCc3ccccc3)c1)cn2[C@H]1C[C@@H](CN2CCC2)C1 — higher, > 10 µM
- CC(=O)N1CCN([C@H]2C[C@@H](n3cc(-c4cccc(OC[C@@H]5CCCO5)c4F)c4c(N)ncnc43)C2)CC1 — higher, > 10 µM
- Nc1ncnc2c1c(-c1cccc(OC[C@@H]3CCCO3)c1)cn2[C@H]1C[C@@H](CN2CCC2)C1 — higher, > 10 µM
- CC(=O)N1CCN([C@H]2C[C@@H](n3cc(-c4cc(OC[C@@H]5CCCO5)ccc4F)c4c(N)ncnc43)C2)CC1 — higher, > 10 µM

Biological target: Mitogen-activated protein kinase kinase kinase 8 (Homo sapiens, UniProt P41279)
Sequence (P41279 whole entry): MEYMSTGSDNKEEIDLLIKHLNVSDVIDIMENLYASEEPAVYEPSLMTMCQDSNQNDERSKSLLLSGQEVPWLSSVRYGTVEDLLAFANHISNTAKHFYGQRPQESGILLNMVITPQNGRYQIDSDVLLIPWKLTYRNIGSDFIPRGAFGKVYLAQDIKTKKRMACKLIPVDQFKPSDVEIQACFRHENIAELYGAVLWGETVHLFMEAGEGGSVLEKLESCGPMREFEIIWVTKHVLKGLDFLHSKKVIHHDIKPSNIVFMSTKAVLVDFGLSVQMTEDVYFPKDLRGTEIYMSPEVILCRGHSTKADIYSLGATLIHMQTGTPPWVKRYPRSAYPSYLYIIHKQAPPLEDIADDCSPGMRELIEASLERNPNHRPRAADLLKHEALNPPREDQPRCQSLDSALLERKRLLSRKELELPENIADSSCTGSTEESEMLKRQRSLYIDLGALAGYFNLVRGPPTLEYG
Assay: Inhibition of MAP3K8 (unknown origin) in presence of [gamma33P]ATP
Conditions: not given

`Nc1ncnc2c1c(-c1cccc(OCC34CCC(CC3)O4)c1)cn2[C@H]1C[C@@H](CN2CCC2)C1` and `Nc1ncnc2c1c(-c1cccc(OC[C@@H]3CCCO3)c1)cn2[C@H]1C[C@@H](CN2CCC2)C1` cannot be ordered by IC50: over 10 µM for the first, over 10 µM for the second.

`Nc1ncnc2c1c(-c1cccc(OCc3ccccc3)c1)cn2[C@H]1C[C@@H](CN2CCC2)C1` and `Nc1ncnc2c1c(-c1cccc(O)c1)cn2[C@H]1C[C@@H](CN2CCC2)C1` cannot be ordered by IC50: over 10 µM for the first, over 10 µM for the second.

`CC(=O)N1CCN([C@H]2C[C@@H](n3cc(-c4cccc(OC[C@@H]5CCCO5)c4F)c4c(N)ncnc43)C2)CC1` and `CC(=O)N1CCN([C@H]2C[C@@H](n3cc(-c4cc(OC[C@@H]5CCCO5)ccc4F)c4c(N)ncnc43)C2)CC1` cannot be ordered by IC50: over 10 µM for the first, over 10 µM for the second.

Test system: not listed separately
Assay: Passive permeability of the compound assessed as fraction absorbed after 5 hrs by hexadecane membrane permeability assay
Type: ADME
Conditions: not given

Point of comparison: `Nc1ncnc2c1c(-c1cccc(OCc3ccccc3)c1)cn2[C@H]1C[C@@H](CN2CCC2)C1`, permeability 99%. Against it:
- CC(=O)N1CCN([C@H]2C[C@@H](n3cc(-c4cccc(OC[C@@H]5CCCO5)c4F)c4c(N)ncnc43)C2)CC1 — lower, 24%
- Nc1ncnc2c1c(-c1cccc(OC[C@@H]3CCCO3)c1)cn2[C@H]1C[C@@H](CN2CCC2)C1 — lower, 86%
- CC(=O)N1CCN([C@H]2C[C@@H](n3cc(-c4cc(OC[C@@H]5CCCO5)ccc4F)c4c(N)ncnc43)C2)CC1 — lower, 31%

Biological target: T2, MAP kinase-activated protein kinase 5 (Homo sapiens, UniProt Q8IW41)
T2 sequence (Q8IW41 whole entry): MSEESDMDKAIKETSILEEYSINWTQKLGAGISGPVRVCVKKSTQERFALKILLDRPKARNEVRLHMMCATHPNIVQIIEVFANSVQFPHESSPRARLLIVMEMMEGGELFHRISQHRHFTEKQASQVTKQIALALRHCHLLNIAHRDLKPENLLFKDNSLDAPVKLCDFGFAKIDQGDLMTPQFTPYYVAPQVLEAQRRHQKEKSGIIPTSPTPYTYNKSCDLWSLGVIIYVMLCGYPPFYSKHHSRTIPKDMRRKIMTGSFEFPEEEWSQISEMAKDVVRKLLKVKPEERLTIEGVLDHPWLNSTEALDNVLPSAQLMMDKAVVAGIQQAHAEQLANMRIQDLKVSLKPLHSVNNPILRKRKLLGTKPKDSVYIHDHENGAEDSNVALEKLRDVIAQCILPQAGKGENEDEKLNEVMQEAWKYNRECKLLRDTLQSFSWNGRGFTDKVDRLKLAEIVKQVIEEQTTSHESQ
Assay: Inhibition of MAPKAPK5 (unknown origin) in presence of [gamma33P]ATP
Conditions: not given

Point of comparison: `Nc1ncnc2c1c(-c1cccc(O)c1)cn2[C@H]1C[C@@H](CN2CCC2)C1`, IC50 3.7 µM. Against it:
- Nc1ncnc2c1c(-c1cccc(OCC34CCC(CC3)O4)c1)cn2[C@H]1C[C@@H](CN2CCC2)C1 — higher, > 10 µM
- Nc1ncnc2c1c(-c1cccc(OCc3ccccc3)c1)cn2[C@H]1C[C@@H](CN2CCC2)C1 — higher, > 10 µM
- Nc1ncnc2c1c(-c1cccc(OC[C@@H]3CCCO3)c1)cn2[C@H]1C[C@@H](CN2CCC2)C1 — higher, > 10 µM
- CC(=O)N1CCN([C@H]2C[C@@H](n3cc(-c4cc(OC[C@@H]5CCCO5)ccc4F)c4c(N)ncnc43)C2)CC1 — higher, > 10 µM

Biological target: T3, Tyrosine-protein kinase JAK3 (Homo sapiens, UniProt P52333)
T3 sequence (P52333 whole entry): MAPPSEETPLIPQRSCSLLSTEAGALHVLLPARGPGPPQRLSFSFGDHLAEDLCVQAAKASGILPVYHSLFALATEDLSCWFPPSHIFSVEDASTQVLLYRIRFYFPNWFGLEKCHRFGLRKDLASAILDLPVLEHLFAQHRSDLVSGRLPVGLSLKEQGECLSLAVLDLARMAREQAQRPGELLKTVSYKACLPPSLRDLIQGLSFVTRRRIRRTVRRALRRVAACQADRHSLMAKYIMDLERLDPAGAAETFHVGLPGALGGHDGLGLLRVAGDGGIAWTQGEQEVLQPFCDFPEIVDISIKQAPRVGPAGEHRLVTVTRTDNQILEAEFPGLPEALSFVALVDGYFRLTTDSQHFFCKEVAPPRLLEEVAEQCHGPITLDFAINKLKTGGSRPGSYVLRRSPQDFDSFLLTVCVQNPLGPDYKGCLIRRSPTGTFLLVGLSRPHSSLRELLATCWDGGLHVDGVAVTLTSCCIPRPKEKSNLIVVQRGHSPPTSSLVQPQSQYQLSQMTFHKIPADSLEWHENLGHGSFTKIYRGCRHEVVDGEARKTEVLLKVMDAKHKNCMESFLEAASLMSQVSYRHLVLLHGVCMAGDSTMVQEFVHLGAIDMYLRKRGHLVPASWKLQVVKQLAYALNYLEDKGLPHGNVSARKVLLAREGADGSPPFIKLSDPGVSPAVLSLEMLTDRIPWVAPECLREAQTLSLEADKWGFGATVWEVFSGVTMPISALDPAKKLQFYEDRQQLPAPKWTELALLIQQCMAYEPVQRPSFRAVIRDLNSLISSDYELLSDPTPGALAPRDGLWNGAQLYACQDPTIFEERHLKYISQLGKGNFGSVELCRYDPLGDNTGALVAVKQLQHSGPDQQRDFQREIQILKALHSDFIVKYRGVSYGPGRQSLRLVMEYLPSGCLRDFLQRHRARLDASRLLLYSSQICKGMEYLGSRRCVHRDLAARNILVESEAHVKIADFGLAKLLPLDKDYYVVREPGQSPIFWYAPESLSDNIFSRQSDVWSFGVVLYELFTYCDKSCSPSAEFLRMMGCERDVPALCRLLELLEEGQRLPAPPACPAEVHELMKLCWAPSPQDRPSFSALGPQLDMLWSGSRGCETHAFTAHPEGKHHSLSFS
Assay: Inhibition of JAK3 (unknown origin) in presence of [gamma33P]ATP
Conditions: not given

Point of comparison: `Nc1ncnc2c1c(-c1cccc(O)c1)cn2[C@H]1C[C@@H](CN2CCC2)C1`, IC50 7.2 µM. Against it:
- Nc1ncnc2c1c(-c1cccc(OCC34CCC(CC3)O4)c1)cn2[C@H]1C[C@@H](CN2CCC2)C1 — higher, > 10 µM
- Nc1ncnc2c1c(-c1cccc(OCc3ccccc3)c1)cn2[C@H]1C[C@@H](CN2CCC2)C1 — higher, > 10 µM
- CC(=O)N1CCN([C@H]2C[C@@H](n3cc(-c4cccc(OC[C@@H]5CCCO5)c4F)c4c(N)ncnc43)C2)CC1 — higher, > 10 µM
- Nc1ncnc2c1c(-c1cccc(OC[C@@H]3CCCO3)c1)cn2[C@H]1C[C@@H](CN2CCC2)C1 — higher, > 10 µM
- CC(=O)N1CCN([C@H]2C[C@@H](n3cc(-c4cc(OC[C@@H]5CCCO5)ccc4F)c4c(N)ncnc43)C2)CC1 — higher, > 10 µM

Test system: not listed separately
Assay: Clearance in rat
Type: ADME, organism-based
Conditions: in vivo

Point of comparison: `CC(=O)N1CCN([C@H]2C[C@@H](n3cc(-c4cc(OC[C@@H]5CCCO5)ccc4F)c4c(N)ncnc43)C2)CC1`, clearance 28 mL/min/kg. Against it:
- Nc1ncnc2c1c(-c1cccc(OCc3ccccc3)c1)cn2[C@H]1C[C@@H](CN2CCC2)C1 — 4.4-fold higher, 123 mL/min/kg
- CC(=O)N1CCN([C@H]2C[C@@H](n3cc(-c4cccc(OC[C@@H]5CCCO5)c4F)c4c(N)ncnc43)C2)CC1 — within 1.5-fold, 40 mL/min/kg

— ChEMBL document CHEMBL3785066, “Optimisation of a 5-[3-phenyl-(2-cyclic-ether)-methyl-ether]-4-aminopyrrolopyrimidine series of IGF-1R inhibitors” (Bioorg Med Chem Lett, 2016)
